This is an account of results in patent US20250302832A1, “PYRAZINE DERIVATIVES AND USES THEREOF” (FOGHORN THERAPEUTICS INC., priority 2022, published 2025).

The structures appear in SMILES notation.

One test addresses T1, HiBit-BRM fusion protein (Homo sapiens, UniProt P51531).
T1 construct: expressed in transfected cells
Put plainly: HiBiT-BRM cell-based degradation assay (Nano-Glo HiBiT lytic detection, 24 h). The conditions noted are these: HeLa cell line expressing HiBiT-BRM; for DC50: read-out: BRM HiBit Degradation IC50. The method, then: (§1) Procedure: A stable HeLa cell line expressing HiBiT-BRM was generated. On day 0, 5000 cells were seeded in 40 μL of media into each well of 384-well cell culture plates. On day 1, cells were treated with 120 nL DMSO or 120 nL of 3-fold serially DMSO-diluted compounds (10 points in duplicate with 30 μM as final top dose). Subsequently plates were incubated for 24 h in a standard tissue culture incubator and equilibrated at room temperature for 15 minutes. Nano-GB HiBiT Lytic Detection System (Promega N3050) reagent was freshly prepared and 20 ul was added to each well. Upon addition of this LgBit-containing reagent, the HiBiT and LgBiT proteins associate to form the luminescent NanoBiT luciferase. The plates were shaken for 10 minutes at room temperature and the bioluminescence read using an EnVision plate reader (PerkinElmer).
(§2) The degradation % was calculated using the following formula: % degradation=100%−100%×(Lumsample−LuMLC)/(LuMHC−LuMLC). DMSO treated cells are employed as High Control (HC) and 2 μM of a known BRM/BRG1 degrader standard treated cells are employed as Low Control (LC).

Test [1] concerns the target T2, HiBit-BRG1 fusion protein (Homo sapiens, UniProt P51532).
T2 construct: expressed in transfected cells
Put plainly: HiBiT-BRG1 cell-based degradation assay (Nano-Glo HiBiT lytic detection, 24 h). The conditions noted are these: HeLa cell line expressing HiBit-BRG1 and LgBit; for Dmax: read-out: BRG1 HiBit Degradation Maximum (%); for DC50: read-out: BRMG1 HiBit Degradation IC50. How it is done:
as §1, with “On day 1, cells were treated with 120 nL DMSO or 120 nL of 3-fold serially DMSO-diluted compounds (10 points in duplicate with 30 μM as final top dose).” left out
For measurement of BRG1 degradation, a stable HeLa cell line expressing HiBit-BRG1 and LgBit was generated. The same protocol as above was then followed.
as §2

T2 sequence (P51532 whole entry, the tested form may be a part): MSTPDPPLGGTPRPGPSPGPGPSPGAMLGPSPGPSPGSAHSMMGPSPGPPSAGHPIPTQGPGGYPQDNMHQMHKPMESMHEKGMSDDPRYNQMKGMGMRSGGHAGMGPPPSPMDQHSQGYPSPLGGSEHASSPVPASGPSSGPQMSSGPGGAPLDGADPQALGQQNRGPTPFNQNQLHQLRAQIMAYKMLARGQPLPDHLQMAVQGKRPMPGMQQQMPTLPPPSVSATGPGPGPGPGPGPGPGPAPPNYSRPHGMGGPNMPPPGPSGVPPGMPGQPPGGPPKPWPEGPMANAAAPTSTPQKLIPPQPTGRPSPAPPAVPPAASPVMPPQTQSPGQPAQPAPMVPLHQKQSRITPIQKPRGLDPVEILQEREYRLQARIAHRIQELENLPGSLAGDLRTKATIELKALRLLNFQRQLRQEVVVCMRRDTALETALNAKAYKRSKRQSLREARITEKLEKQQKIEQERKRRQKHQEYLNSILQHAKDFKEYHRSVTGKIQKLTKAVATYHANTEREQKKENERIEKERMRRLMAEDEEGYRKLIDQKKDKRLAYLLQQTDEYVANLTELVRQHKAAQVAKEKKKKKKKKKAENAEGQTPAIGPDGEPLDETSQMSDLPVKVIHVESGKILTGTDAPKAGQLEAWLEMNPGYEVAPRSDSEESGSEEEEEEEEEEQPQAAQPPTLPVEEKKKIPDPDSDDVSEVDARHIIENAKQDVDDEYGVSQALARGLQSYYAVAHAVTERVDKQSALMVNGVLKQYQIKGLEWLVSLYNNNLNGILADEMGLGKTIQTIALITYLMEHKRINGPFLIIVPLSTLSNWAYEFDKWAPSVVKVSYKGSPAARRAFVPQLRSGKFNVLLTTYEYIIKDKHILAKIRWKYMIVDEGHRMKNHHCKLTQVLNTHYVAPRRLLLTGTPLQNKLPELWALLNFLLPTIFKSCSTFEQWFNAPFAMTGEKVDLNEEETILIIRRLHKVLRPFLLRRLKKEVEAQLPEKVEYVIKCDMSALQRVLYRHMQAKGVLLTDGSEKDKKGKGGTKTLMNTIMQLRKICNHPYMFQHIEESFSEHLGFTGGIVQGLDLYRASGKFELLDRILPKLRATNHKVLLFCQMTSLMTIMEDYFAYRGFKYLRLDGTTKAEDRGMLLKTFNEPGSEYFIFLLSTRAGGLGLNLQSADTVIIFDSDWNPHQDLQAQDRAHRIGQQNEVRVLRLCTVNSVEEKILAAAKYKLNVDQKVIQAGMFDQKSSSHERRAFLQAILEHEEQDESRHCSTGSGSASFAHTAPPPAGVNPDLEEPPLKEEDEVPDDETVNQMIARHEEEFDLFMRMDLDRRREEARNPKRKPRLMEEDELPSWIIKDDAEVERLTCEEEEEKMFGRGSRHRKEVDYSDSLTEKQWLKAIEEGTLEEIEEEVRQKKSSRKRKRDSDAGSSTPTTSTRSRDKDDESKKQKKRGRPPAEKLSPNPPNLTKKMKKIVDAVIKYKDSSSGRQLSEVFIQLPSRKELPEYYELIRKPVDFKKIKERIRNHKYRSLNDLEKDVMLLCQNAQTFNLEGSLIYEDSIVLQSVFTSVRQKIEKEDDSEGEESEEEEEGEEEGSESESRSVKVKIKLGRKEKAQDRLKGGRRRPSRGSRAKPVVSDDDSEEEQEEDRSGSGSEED
T1 sequence (P51531 whole entry, the tested form may be a part): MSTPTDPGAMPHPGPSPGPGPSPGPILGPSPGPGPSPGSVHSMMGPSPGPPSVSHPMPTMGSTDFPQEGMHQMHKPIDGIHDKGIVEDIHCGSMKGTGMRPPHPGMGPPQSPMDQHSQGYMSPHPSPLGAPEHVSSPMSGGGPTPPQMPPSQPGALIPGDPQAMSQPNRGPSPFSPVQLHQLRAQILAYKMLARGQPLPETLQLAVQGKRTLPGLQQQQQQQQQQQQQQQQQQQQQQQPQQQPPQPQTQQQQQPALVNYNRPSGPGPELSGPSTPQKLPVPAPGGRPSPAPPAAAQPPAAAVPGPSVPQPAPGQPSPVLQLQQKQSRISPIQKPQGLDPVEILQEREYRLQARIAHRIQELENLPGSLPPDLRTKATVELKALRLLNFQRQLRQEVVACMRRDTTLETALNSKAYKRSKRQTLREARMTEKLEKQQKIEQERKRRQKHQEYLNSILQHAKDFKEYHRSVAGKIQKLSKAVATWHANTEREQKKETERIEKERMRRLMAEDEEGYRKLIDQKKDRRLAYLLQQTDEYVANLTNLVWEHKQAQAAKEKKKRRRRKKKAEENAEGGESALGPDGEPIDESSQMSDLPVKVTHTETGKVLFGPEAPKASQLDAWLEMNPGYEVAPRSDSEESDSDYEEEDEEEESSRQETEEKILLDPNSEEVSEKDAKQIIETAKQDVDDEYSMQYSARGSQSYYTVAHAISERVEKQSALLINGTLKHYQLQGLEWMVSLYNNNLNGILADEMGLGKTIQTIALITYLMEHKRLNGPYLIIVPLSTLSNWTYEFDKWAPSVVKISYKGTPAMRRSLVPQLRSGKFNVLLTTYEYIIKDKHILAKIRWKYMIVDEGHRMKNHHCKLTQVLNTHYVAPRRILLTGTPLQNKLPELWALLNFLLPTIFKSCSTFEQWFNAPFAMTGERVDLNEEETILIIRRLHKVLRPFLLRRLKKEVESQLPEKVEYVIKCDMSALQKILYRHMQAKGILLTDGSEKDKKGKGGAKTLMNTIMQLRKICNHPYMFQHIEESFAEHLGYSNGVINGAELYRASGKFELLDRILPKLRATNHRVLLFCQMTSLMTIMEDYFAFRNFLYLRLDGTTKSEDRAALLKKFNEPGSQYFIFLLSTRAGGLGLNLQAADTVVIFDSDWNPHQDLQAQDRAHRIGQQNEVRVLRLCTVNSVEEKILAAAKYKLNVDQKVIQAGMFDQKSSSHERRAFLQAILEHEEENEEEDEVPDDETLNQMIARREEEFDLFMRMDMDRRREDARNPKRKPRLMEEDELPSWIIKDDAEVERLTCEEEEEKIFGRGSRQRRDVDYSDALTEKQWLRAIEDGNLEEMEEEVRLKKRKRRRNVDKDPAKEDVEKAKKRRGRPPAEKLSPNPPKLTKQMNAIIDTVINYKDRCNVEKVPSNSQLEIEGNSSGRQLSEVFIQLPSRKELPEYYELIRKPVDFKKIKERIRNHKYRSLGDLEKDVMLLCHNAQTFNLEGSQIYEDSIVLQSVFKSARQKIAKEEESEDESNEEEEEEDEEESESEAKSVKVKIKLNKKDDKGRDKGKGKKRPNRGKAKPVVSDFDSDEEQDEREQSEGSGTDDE

For the molecule `Cc1ncsc1-c1ccc([C@H](C)NC(=O)[C@@H]2C[C@@H](O)CN2C(=O)[C@@H](c2cc(-c3cnc(N4CC[C@@H](c5cc6nnc(-c7ccccc7O)cc6n5CC5CC5)C4)nc3)no2)C(C)C)cc1` [Compound 114, (2S,4R)-1-((R)-2-(3-(2-((R)-3-(5-(cyclopropylmethyl)-3-(2-hydroxyphenyl)-5H-pyrrolo[3,2-c]pyridazin-6-yl)pyrrolidin-1-yl)pyrimidin-5-yl)isoxazol-5-yl)-3-methylbutanoyl)-4-hydroxy-N-((S)-1-(4-(4-methylthiazol-5-yl)phenyl)ethyl)pyrrolidine-2-carboxamide], at HiBit-BRM fusion protein, the “BRM HiBit Degradation Maximum (%)” value is on record as “A (“A” indicates maximum degradation ≥75%)” and the DC50 was below 10 nM. For the same molecule, in test [1], the Dmax is above 75% and the DC50 is above 10 nM.
For `Cc1ncsc1-c1ccc([C@H](C)NC(=O)[C@@H]2C[C@@H](O)CN2C(=O)[C@@H](c2cc(N3CCC(CN4CC(c5cc6nnc(-c7ccccc7O)cc6n5C)C4)CC3)no2)C(C)C)cc1` [Compound 9, (2S,4R)-4-hydroxy-1-((R)-2-(3-(4-((3-(3-(2-hydroxyphenyl)-5-methyl-5H-pyrrolo[3,2-c]pyridazin-6-yl)azetidin-1-yl)methyl)piperidin-1-yl)isoxazol-5-yl)-3-methylbutanoyl)-N-((S)-1-(4-(4-methylthiazol-5-yl)phenyl)ethyl)pyrrolidine-2-carboxamide], at HiBit-BRM fusion protein, the “BRM HiBit Degradation Maximum (%)” value was “A (“A” indicates maximum degradation ≥75%)” and the DC50 is above 10 nM. For the same molecule, the Dmax in test [1] is below 50%.
Consider `Cc1cc(-c2cc([C@H](C(=O)N3C[C@H](O)C[C@H]3C(=O)N[C@@H](C)c3ccc(-c4scnc4C)cc3)C(C)C)on2)cnc1N1CC[C@H](c2cc3nnc(-c4ccccc4O)cc3n2C2CC2)C1` (single isomer, unassigned) [Compound 110], for which, on HiBit-BRM fusion protein, the “BRM HiBit Degradation Maximum (%)” value is reported as “A (“A” indicates maximum degradation ≥75%)” and the DC50 was below 10 nM. Also, the Dmax in test [1] is below 50%.
The corresponding values for `Cc1ncsc1-c1ccc([C@H](C)NC(=O)[C@@H]2C[C@@H](O)CN2C(=O)[C@@H](c2cc(-c3cnc(N4CC[C@@H](c5cc6nnc(-c7cccc(F)c7O)cc6n5C5CC5)C4)nc3)no2)C(C)C)cc1` [Compound 106, (2S,4R)-1-((R)-2-(3-(2-((R)-3-(5-cyclopropyl-3-(3-fluoro-2-hydroxyphenyl)-5H-pyrrolo[3,2-c]pyridazin-6-yl)pyrrolidin-1-yl)pyrimidin-5-yl)isoxazol-5-yl)-3-methylbutanoyl)-4-hydroxy-N-((S)-1-(4-(4-methylthiazol-5-yl)phenyl)ethyl)pyrrolidine-2-carboxamide] are “B (“B” indicates maximum degradation ≥50%)”, above 10 nM and below 50%.
The matching figures for `Cc1ncsc1-c1ccc([C@H](C)NC(=O)[C@@H]2C[C@@H](O)CN2C(=O)[C@@H](c2cc(-c3cnc(N4CCC(c5cc6nnc(-c7ccccc7O)cc6n5C5CC5)CC4)nc3)no2)C(C)C)cc1` [Compound 25, (2S,4R)-1-[(2R)-2-[3-(2-{4-[5-cyclopropyl-3-(2-hydroxyphenyl)pyrrolo[3,2-c]pyridazin-6-yl]piperidin-1-yl}pyrimidin-5-yl)-1,2-oxazol-5-yl]-3-methylbutanoyl]-4-hydroxy-N-[(1S)-1-[4-(4-methyl-1,3-thiazol-5-yl)phenyl]ethyl]pyrrolidine-2-carboxamide]: “A (“A” indicates maximum degradation ≥75%)”, below 10 nM and below 50%.
With `Cc1ncsc1-c1ccc([C@H](C)NC(=O)[C@@H]2C[C@@H](O)CN2C(=O)[C@@H](c2cc(OCCN3CC(c4cc5nnc(-c6ccccc6O)cc5n4C)C3)no2)C(C)C)cc1` [Compound 8, (2S,4R)-4-hydroxy-1-((R)-2-(3-(2-(3-(3-(2-hydroxyphenyl)-5-methyl-5H-pyrrolo[3,2-c]pyridazin-6-yl)azetidin-1-yl)ethoxy)isoxazol-5-yl)-3-methylbutanoyl)-N—((S)-1-(4-(4-methylthiazol-5-yl)phenyl)ethyl) pyrrolidine-2-carboxamide], on HiBit-BRM fusion protein, the “BRM HiBit Degradation Maximum (%)” value was “A (“A” indicates maximum degradation ≥75%)” and the DC50 was below 10 nM. In test [1], the Dmax is above 75% and the DC50 is above 10 nM.
Regarding `CC(C)C(C(=O)N1C[C@H](O)C[C@H]1C(=O)NCC1CC1)c1cc(N2CC3(CC(c4cc5nnc(-c6ccccc6O)cc5n4C4CCC4)C3)C2)no1` (stereo partly drawn) [Compound 55, (2S,4R)-1-(2-(3-(6-(5-cyclobutyl-3-(2-hydroxyphenyl)-5H-pyrrolo[3,2-c]pyridazin-6-yl)-2-azaspiro[3.3]heptan-2-yl)isoxazol-5-yl)-3-methylbutanoyl)-N-(cyclopropylmethyl)-4-hydroxypyrrolidine-2-carboxamide], at HiBit-BRM fusion protein, the “BRM HiBit Degradation Maximum (%)” value was “A (“A” indicates maximum degradation ≥75%)” and the DC50 is above 10 nM. Also, the Dmax in test [1] is below 50%.
The corresponding values for `Cc1ncsc1-c1ccc([C@H](C)NC(=O)[C@@H]2C[C@@H](O)CN2C(=O)[C@@H](c2cc(OCC(=O)N3CC(c4cc5nnc(-c6ccccc6O)cc5n4C)C3)no2)C(C)C)cc1` [Compound 15, (2S,4R)-4-hydroxy-1-((R)-2-(3-(2-(3-(3-(2-hydroxyphenyl)-5-methyl-5H-pyrrolo[3,2-c]pyridazin-6-yl)azetidin-1-yl)-2-oxoethoxy)isoxazol-5-yl)-3-methylbutanoyl)-N-((S)-1-(4-(4-methylthiazol-5-yl)phenyl)ethyl)pyrrolidine-2-carboxamide] are “A (“A” indicates maximum degradation ≥75%)”, above 100 nM and below 50%.
With `Cc1ncsc1-c1ccc([C@H](C)NC(=O)[C@@H]2C[C@@H](O)CN2C(=O)[C@@H](c2cc(N3CC4(CC(c5cc6nnc(-c7ccccc7O)cc6n5C)C4)C3)no2)C(C)C)cc1` [Compound 67, (2S,4R)-4-hydroxy-1-((R)-2-(3-(6-(3-(2-hydroxyphenyl)-5-methyl-5H-pyrrolo[3,2-c]pyridazin-6-yl)-2-azaspiro[3.3]heptan-2-yl)isoxazol-5-yl)-3-methylbutanoyl)-N-((S)-1-(4-(4-methylthiazol-5-yl)phenyl)ethyl)pyrrolidine-2-carboxamide], on HiBit-BRM fusion protein, the “BRM HiBit Degradation Maximum (%)” value is listed as “A (“A” indicates maximum degradation ≥75%)” and the DC50 is below 10 nM. Also, in test [1], the Dmax is above 50% and the DC50 is above 10 nM.
Regarding `Cc1ncsc1-c1ccc([C@H](C)NC(=O)[C@@H]2C[C@@H](O)CN2C(=O)[C@@H](c2cc(N3CC[C@@H](c4cc5nnc(-c6ccccc6O)cc5n4C4(C)CC4)C3)no2)C(C)C)cc1` [Compound 81, (2S,4R)-4-hydroxy-1-((R)-2-(3-((R)-3-(3-(2-hydroxyphenyl)-5-(1-methylcyclopropyl)-5H-pyrrolo[3,2-c]pyridazin-6-yl)pyrrolidin-1-yl)isoxazol-5-yl)-3-methylbutanoyl)-N-((S)-1-(4-(4-methylthiazol-5-yl)phenyl)ethyl)pyrrolidine-2-carboxamide], on HiBit-BRM fusion protein, the “BRM HiBit Degradation Maximum (%)” value is reported as “A (“A” indicates maximum degradation ≥75%)” and the DC50 was below 10 nM. Further, in test [1], the Dmax was above 75% and the DC50 was below 10 nM.
Turning to `Cc1ncsc1-c1ccc([C@H](C)NC(=O)[C@@H]2C[C@@H](O)CN2C(=O)[C@@H](c2cc(N3CC[C@@H](c4cc5nnc(-c6ccccc6O)cc5n4C4CCC4)C3)no2)C(C)C)cc1` [Compound 88, (2S,4R)-1-((R)-2-(3-((R)-3-(5-cyclobutyl-3-(2-hydroxyphenyl)-5H-pyrrolo[3,2-c]pyridazin-6-yl)pyrrolidin-1-yl)isoxazol-5-yl)-3-methylbutanoyl)-4-hydroxy-N-((S)-1-(4-(4-methylthiazol-5-yl)phenyl)ethyl)pyrrolidine-2-carboxamide], on HiBit-BRM fusion protein, the “BRM HiBit Degradation Maximum (%)” value is “A (“A” indicates maximum degradation ≥75%)” and the DC50 is below 10 nM. Also, in test [1], the Dmax is above 75% and the DC50 was above 10 nM.
Consider `Cc1ncsc1-c1ccc([C@H](C)NC(=O)[C@@H]2C[C@@H](O)CN2C(=O)[C@@H](c2cc(OCCN3CC(c4cc5nnc(-c6ccccc6O)cc5n4C4COC4)C3)no2)C(C)C)cc1` [Compound 16, (2S,4R)-4-hydroxy-1-((R)-2-(3-(2-(3-(3-(2-hydroxyphenyl)-5-(oxetan-3-yl)-5H-pyrrolo[3,2-c]pyridazin-6-yl)azetidin-1-yl)ethoxy)isoxazol-5-yl)-3-methylbutanoyl)-N—((S)-1-(4-(4-methylthiazol-5-yl)phenyl)ethyl)pyrrolidine-2-carboxamide], for which the “BRM HiBit Degradation Maximum (%)” value at HiBit-BRM fusion protein is on record as “C (“C” indicates maximum degradation <50%)”. The Dmax in test [1] is below 50%.
